Assays:
[1] = system: CE of recombinant pET30a(+)/BL21(DE3); assay type: in vitro ADME, E. coli; conditions: CE of pET30a(+)/BL21(DE3) added at 12 h; PBS; 30 °C; HPLC-UV 238 nm; Figure S1
Procedure: The experiments were carried out with five treatments as following: • Control groups for treatment A and treatment C: the CEs of recombinant bacteria pGEX-4T-1/BL21(DE3) without protein USTB-05-A and recombinant bacteria pET30a(+)/BL21(DE3) without protein USTB-05-C were added into two tubes with PBS containing NOD, respectively. • Treatment A: the CE of recombinant bacteria pGEX-4T-1/USTB-05-A/BL21(DE3) containing crude protein USTB-05-A was added into PBS containing NOD. • Treatment C: the CE of recombinant bacteria pET30a(+)/USTB-05-C/BL21(DE3) containing crude protein USTB-05-C was added into PBS containing NOD. • Treatment AC: at 0 h, the CE containing crude protein USTB-05-A was added into PBS containing NOD. At 12 h, the CE containing crude protein USTB-05-C was added to the above solution. • Control group for treatment A and treatment C: at 0 h, the CE containing crude protein USTB-05-A was added into the test tubes with PBS containing NOD. At 12 h, the CE of pET30a(+)/BL21(DE3) without protein USTB-05-C was added to the above solution. […]
The concentration of NOD was detected by high performance liquid chromatography (HPLC) (LC10ATVP, Shimadzu Co., Ltd., Tokyo, Japan) with a UV diode array detector at 238 nm. […] The spectra of NOD and its biodegradation products were detected at the time of HPLC analysis.

USTB-05-A = conditions: initial NOD 13.7 mg L^−1; CE protein 158 mg L^−1; PBS; 30 °C, 200 rpm; 12 h to 24 h; HPLC-UV 238 nm
USTB-05-C = conditions: CE protein 165 mg L^−1 added at 12 h; followed from 13 h until 24 h; PBS; 30 °C, 200 rpm; HPLC-UV 238 nm
[2] = system: cell-free extract (CE) of Sphingopyxis sp. USTB-05; conditions: cited from earlier work
USTB-05-A mutants = conditions: cited from earlier work
[3] = system: MlrA point mutants H260A and E265A; conditions: cited from earlier work

## C/C=C(/C(=O)N[C@@H](C(=O)O)[C@H](C)C(=O)N[C@@H](CCCNC(=N)N)C(=O)O)N(C)C(=O)CC[C@@H](NC(=O)[C@@H](C)[C@@H](N)/C=C/C(C)=C/[C@H](C)[C@H](Cc1ccccc1)OC)C(=O)O [product A]
[1]
  concentration of product A with control CE without USTB-05-C (control group of treatment AC): constant
USTB-05-A
  peaks after the first 12 h until 24 h with CE containing USTB-05-A only (treatment A): remained constant
USTB-05-C
  change of product A peak after addition of CE containing USTB-05-C (treatment AC): decreased and disappeared

## MC-LR
[2]
  time to complete biodegradation by CE: ≤ 3 h
USTB-05-A mutants
  MC-LR biodegradation by N264A mutant: significant decrease in MlrA activity
  MC-LR biodegradation by W176A and W201A mutants: decrease in the reaction rate to some extent
  MC-LR biodegradation by point mutants E172A, H205A and H260A: complete loss of enzymatic activity
[3]
  MC-LR biodegradation by MlrA point mutants H260A and E265A: no activity

## MC-YR
[2]
  time to complete elimination by CE: ≤ 10 h
